Experimental findings from patent US20250154171A1, “RAS INHIBITORS” (Revolution Medicines, Inc., priority 2023, published 2025) are described below.

Where two headings read alike, the source gives them in different places.

Series [1] concerns K-RasG12V (Capan-1). Put plainly: Potency assay: cellular pERK (AlphaLISA SureFire or In-Cell Western), Capan-1. The settings on record: Homo sapiens; Capan-1 cells; 4 hours; in at least one of the assays (AlphaLISA or In-Cell Western); read-out: pERK IC50 with respect to K-RasG12V (Capan-1). The series is classed as cell-based. An excerpt:
The purpose of this assay is to measure the ability of test compounds to inhibit K-Ras in cells. Activated K-Ras induces increased phosphorylation of ERK at Threonine 202 and Tyrosine 204 (PERK). This procedure measures a decrease in cellular pERK in response to test compounds. The procedure described below in Capan-1 cells is applicable to K-RasG12V.
Note: This protocol may be executed substituting other cell lines to characterize inhibitors of other RAS variants, including, for example, NCI-H358 (K-Ras G12C), AsPC-1 (K-Ras G12D), Capan-1 (K-Ras G12V), or NCI-H1355 (K-Ras G13C).
Cells are grown and maintained using media and procedures recommended by the ATCC. On the day prior to compound addition, cells are plated in 384-well cell culture plates (40 μl/well) and grown overnight in a 37° C., 5% CO2 incubator. Test compounds are prepared in 10, 3-fold dilutions in DMSO, with a high concentration of 10 mM. On the day of assay, 40 nL of test compound is added to each well of cell culture plate using an Echo550 liquid handler (LabCyte®). Concentrations of test compound are tested in duplicate. After compound addition, cells are incubated 4 hours at 37° C., 5% CO2. Following incubation, culture medium is removed, and cells are washed once with phosphate buffered saline.
In some experiments, cellular pERK level is determined using the AlphaLISA SureFire Ultra p-ERK1/2 Assay Kit (PerkinElmer). Cells are lysed in 25 μL lysis buffer, with shaking at 600 RPM at room temperature. Lysate (10 μL) is transferred to a 384-well Opti-plate (PerkinElmer) and 5 μL acceptor mix is added. After a 2-hour incubation in the dark, 5 μL donor mix is added, plate is sealed, and incubated 2 hours at room temperature. Signal is read on an Envision plate reader (PerkinElmer) using standard AlphaLISA settings. Analysis of raw data is carried out in Excel (Microsoft) and Prism (GraphPad). Signal is plotted vs. the decadal logarithm of compound concentration, and IC50 is determined by fitting a 4-parameter sigmoidal concentration response model.
In other experiments, cellular pERK is determined by In-Cell Western. Following compound treatment, cells are washed twice with 200 μL tris buffered saline (TBS) and fixed for 15 minutes with 150 μL 4% paraformaldehyde in TBS. Fixed cells are washed 4 times for 5 minutes with TBS containing 0.1% Triton X-100 (TBST) and then blocked with 100 μL Odyssey blocking buffer (LI-COR) for 60 minutes at room temperature. Primary antibody (PERK, CST-4370, Cell Signaling Technology) is diluted 1:200 in blocking buffer, and 50 μL is added to each well and incubated overnight at 4° C. Cells are washed 4 times for 5 minutes with TBST. Secondary antibody (IR-800CW rabbit, LI-COR, diluted 1:800) and DNA stain DRAQ5 (LI-COR, diluted 1:2000) are added and incubated 1-2 hours at room temperature. Cells are washed 4 times for 5 minutes with TBST. Plates are scanned on a Li—COR Odyssey CLx Imager. Analysis of raw data is carried out in Excel (Microsoft) and Prism (GraphPad). Signal is plotted vs. the decadal logarithm of compound concentration, and IC50 is determined by fitting a 4-parameter sigmoidal concentration response model.
On the technique in general: Alpha assays give light when donor and acceptor beads are brought close together.

In the case of `CO[C@@H](C)c1ncccc1-c1c2c3cc(ccc3n1[C@H]1C[C@@H](C#N)C1)-c1coc(n1)[C@@H](OCc1ccccn1)[C@H](NC(=O)[C@H]1[C@H](C)[C@@H]1C)C(=O)N1N[C@H](C(=O)OCC(C)(C)C2)C2CC1C2` [Example A1174], the IC50 in series [1] was under 650 nM. In the case of `CO[C@@H](C)c1ncc([C@@H]2CCN(C3CC3)C2)cc1-c1c2c3cc(ccc3n1CCOC1CCOCC1)-c1csc(n1)[C@@H](N1CC(C)(OC)C1)[C@H](NC(=O)OC(C)(C)C)C(=O)N1CCC[C@H](N1)C(=O)OCC(C)(C)C2`, under “from CO[C@@H](C)c1ncc([C@@H]2CCN(C3CC3)C2)cc1-c1c(CC(C)(C)CO)c2cc(-c3csc([C@H]([C@H](NC(=O)OC(C)(C)C)C(=O)N4CCC[C@@H](C(=O)O)N4)N4CC(C)(OC)C4)n3)ccc2n1CCOC1CCOCC1, ester bond, 18-membered ring, EDCI/HOBt/DIEA, CH2Cl2, 9.4 mM, 25.0 °C, 16.0 h”, the ring closure, isolated yield stood at 43.6%. Where the note is “ester bond, 18-membered ring, EDCI/HOBt/DIEA, CH2Cl2, 4.68 mM, 30.0 °C”, “tert-butyl ((6^4S,3S,4S,Z)-12-(5-(4-cyclopropylpiperazin-1-yl)-2-((S)-1-methoxyethyl)pyridin-3-yl)-10,10-dimethyl-3-morpholino-5,7-dioxo-11-(2-((tetrahydro-2H-pyran-4-yl)oxy)ethyl)-11H-8-oxa-6^2,6^3-diaza-2(4,2)-thiazola-1(5,3)-indola-6 (2,4)-bicyclo[3.1.1]heptanacycloundecaphane-4-yl) carbamate” had a ring closure, isolated yield of 41%. In turn, `CO[C@@H](C)c1ncc(N2CCN(C3CC3)CC2)cc1-c1c2c3cc(ccc3n1CCO[C@H]1CCOC(C)(C)C1)-c1coc(n1)[C@@H](N1CC3(COC3)C1)[C@H](NC(=O)OC(C)(C)C)C(=O)N1CC3CC(C3)(N1)C(=O)OCC(C)(C)C2` registered a ring closure, isolated yield (from CO[C@@H](C)c1ncc(N2CCN(C3CC3)CC2)cc1-c1c(CC(C)(C)CO)c2cc(-c3coc([C@H]([C@H](NC(=O)OC(C)(C)C)C(=O)N4CC5CC(C(=O)O)(C5)N4)N4CC5(COC5)C4)n3)ccc2n1CCO[C@H]1CCOC(C)(C)C1, ester bond, 18-membered ring, PyBOP/DMAP/DIEA, CH2Cl2, 1.83 mM, 20.0 °C, 15.0 h) of 62.5%. Consider “tert-butyl ((6^3S,3R,4S)-1^2-(5-(4-cyclopropylpiperazin-1-yl)-2-((S)-1-methoxyethyl)pyridin-3-yl)-3-ethoxy-10,10-dimethyl-5,7-dioxo-1^1-(2-((tetrahydro-2H-pyran-4-yl)oxy)ethyl)-6^1,6^2,6^3,6^4,6^5,6^6-hexahydro-1^1H-8-oxa-2 (5,2)-oxazola-1(5,3)-indola-6(1,3)-pyridazinacycloundecaphane-4-yl) carbamate”, for which the ring closure, isolated yield (cc_pd bond, 18-membered ring, XPhos Pd G3/XPhos/K3PO4, toluene/dioxane/H2O, 53.0 mM, 80.0 °C) was 16.3%.

Regarding `CO[C@@H](C)c1ncccc1-c1c2c3cc(ccc3n1[C@H]1C[C@@H](C#N)C1)-c1csc(n1)[C@@H](N1CC3(CCCN3)C1)[C@H](NC(=O)[C@H]1[C@H](C)[C@@H]1C)C(=O)N1CCC[C@H](N1)C(=O)OCC(C)(C)C2` (atropisomer, axis not shown) [Example A1168], the IC50 in series [1] is under 650 nM. Under “from CO[C@@H](C)c1ncc(N2CCN(C3CC3)CC2)cc1-c1c(CC(C)(C)CO)c2cc(-c3csc([C@H]([C@H](NC(=O)OC(C)(C)C)C(=O)N4CCC[C@@H](C(=O)O)N4)N4CC5(COC5)C4)n3)ccc2n1CCOC1CCOCC1, ester bond, 18-membered ring, EDCI/HOBt/DIEA, CH2Cl2, 9.35 mM, 25.0 °C”, `CO[C@@H](C)c1ncc(N2CCN(C3CC3)CC2)cc1-c1c2c3cc(ccc3n1CCOC1CCOCC1)-c1csc(n1)[C@@H](N1CC3(COC3)C1)[C@H](NC(=O)OC(C)(C)C)C(=O)N1CCC[C@H](N1)C(=O)OCC(C)(C)C2` yielded a ring closure, isolated yield of 27.3%. For `CO[C@@H](C)c1ncccc1-c1c2c3cc(ccc3n1[C@H]1C[C@@H](C#N)C1)-c1csc(n1)[C@@H](N1CC3(CCCN3C)C1)[C@H](NC(=O)[C@H]1[C@H](C)[C@@H]1C)C(=O)N1CCC[C@H](N1)C(=O)OCC(C)(C)C2` (atropisomer, axis not shown) [Example A983], the IC50 in series [1] is under 650 nM. The same measure, in the same setting: then `CO[C@@H](C)c1ncccc1-c1c2c3cc(ccc3n1C1CN(C3CC3)C1)-c1csc(n1)[C@@H](N1CC3(CCN3C3COC3)C1)[C@H](NC(=O)[C@@H]1[C@@H](C)[C@H]1c1ccncn1)C(=O)N1CCC[C@H](N1)C(=O)OCC(C)(C)C2` (atropisomer, axis not shown) [Example A1076], with under 650 nM; and `CO[C@@H](C)c1ncccc1-c1c2c3cc(ccc3n1C1CN(C3CC3)C1)-c1csc(n1)[C@@H](N1CC3(CCN3C)C1)[C@H](NC(=O)[C@H]1[C@H](C)[C@@H]1C)C(=O)N1CCC[C@H](N1)C(=O)OCC(C)(C)C2` (atropisomer, axis not shown) [Example A1191], with under 650 nM.

Regarding `CO[C@@H](C)c1ncc(N2CCN(C3CC3)CC2)cc1-c1c2c3cc(ccc3n1CCOC1CCOCC1)-c1csc(n1)[C@@H](N1CCCC1)[C@H](NC(=O)OC(C)(C)C)C(=O)N1CCC[C@H](N1)C(=O)OCC(C)(C)C2`, for the setting “from CO[C@@H](C)c1ncc(N2CCN(C3CC3)CC2)cc1-c1c(CC(C)(C)CO)c2cc(-c3csc([C@H]([C@H](NC(=O)OC(C)(C)C)C(=O)N4CCC[C@@H](C(=O)O)N4)N4CCCC4)n3)ccc2n1CCOC1CCOCC1, ester bond, 18-membered ring, EDCI/HOBt/DIEA, CH2Cl2, 9.59 mM, 25.0 °C”, the ring closure, isolated yield amounted to 54.7%. With `CO[C@@H](C)c1ncccc1-c1c2c3cc(ccc3n1C1CN(C3CC3)C1)-c1coc(n1)[C@@H](N1CC3(CCCN3C)C1)[C@H](NC(=O)[C@@H]1[C@@H](C)[C@H]1c1ccncn1)C(=O)N1CCC[C@H](N1)C(=O)OCC(C)(C)C2` (atropisomer, axis not shown) [Example A1086], the IC50 in series [1] is under 650 nM.

Under “from C[C@H](OC[C@H](C)OCCBr)c1ncccc1-c1[nH]c2ccc(Br)cc2c1CC(C)(C)CO[Si](c1ccccc1)(c1ccccc1)C(C)(C)C, amine bond, 11-membered ring, Cs2CO3, DMF, 119.0 mM, 60.0 °C, 1.0 h”, `C[C@@H]1OC[C@H](C)OCCn2c(c(CC(C)(C)CO[Si](c3ccccc3)(c3ccccc3)C(C)(C)C)c3cc(Br)ccc32)-c2cccnc21` had a ring closure, isolated yield of 76.9%. Consider `CO[C@@H](C)c1ncccc1-c1c2c3cc(ccc3n1CCOC1CCOCC1)-c1csc(n1)[C@@H](N1CCOC[C@@H]1C#N)[C@H](NC(=O)OC(C)(C)C)C(=O)N1CCC[C@H](N1)C(=O)OC(C)(C)C2`, for which the ring closure, isolated yield (from CO[C@@H](C)c1ncccc1-c1c(CC(C)(C)O)c2cc(-c3csc([C@H]([C@H](NC(=O)OC(C)(C)C)C(=O)N4CCC[C@@H](C(=O)O)N4)N4CCOC[C@@H]4C#N)n3)ccc2n1CCOC1CCOCC1, ester bond, 18-membered ring, EDCI/HOBt/DIEA, CH2Cl2, 10.4 mM, 25.0 °C, 2.0 h) was found to be 31%. Turning to `CO[C@@H](C)c1ncc(N2CCN(C(=O)OCc3ccccc3)CC2)cc1-c1c2c3cc(ccc3n1CCO[C@H]1CCOC(C)(C)C1)-c1nc(co1)[C@@H](N1CCCC1)[C@H](NC(=O)OC(C)(C)C)C(=O)N1N[C@H](C(=O)OCC(C)(C)C2)C2CC1C2`, the ring closure, isolated yield (from CO[C@@H](C)c1ncc(N2CCN(C(=O)OCc3ccccc3)CC2)cc1-c1c(CC(C)(C)COC(=O)[C@H]2NN(C(=O)[C@@H](NC(=O)OC(C)(C)C)[C@@H](c3coc(Br)n3)N3CCCC3)C3CC2C3)c2cc(B3OC(C)(C)C(C)(C)O3)ccc2n1CCO[C@H]1CCOC(C)(C)C1, cc_pd bond, 18-membered ring, Pd(DtBPF)Cl2/K3PO4, toluene/dioxane/H2O, 15.9 mM, 80.0 °C, 2.0 h) was 24%. `CO[C@@H](C)c1ncccc1-c1c2c3cc(ccc3n1CCO[C@H]1CCOC(C)(C)C1)-c1coc(n1)C[C@H](NC(=O)OC(C)(C)C)C(=O)N1N[C@H](C(=O)OCC(C)(C)C2)C2CC1C2` returned a ring closure, isolated yield (from CO[C@@H](C)c1ncccc1-c1c(CC(C)(C)CO)c2cc(-c3coc(C[C@H](NC(=O)OC(C)(C)C)C(=O)N4N[C@H](C(=O)O)C5CC4C5)n3)ccc2n1CCO[C@H]1CCOC(C)(C)C1, ester bond, 18-membered ring, EDCI/HOBt/DIEA, MeCN, 11.5 mM, 35.0 °C, 2.0 h) of 30.6%.

The term IC50 denotes the concentration that inhibits the measured activity by half.
